Measured values taken from ChEMBL document CHEMBL3885881, “DrugMatrix”.

Species: Rattus norvegicus
Assay: DrugMatrix - Regimen: Daily Repeat
Assay type: toxicity, organism-based, Sprague-Dawley
Set-up: regimen Daily Repeat, gender Male, age 6-8 weeks
Conditions: in vivo, po, route oral GAVAGE, vehicle 100 % WATER; for ABSOLUTE BASOPHIL / ABSOLUTE EOSINOPHIL / ABSOLUTE LYMPHOCYTE / ABSOLUTE MONOCYTE / ABSOLUTE SEGMENTED NEUTROPHIL / BASOPHIL / EOSINOPHIL / ERYTHROCYTE COUNT / HEMATOCRIT / HEMOGLOBIN / LEUKOCYTE COUNT / LYMPHOCYTE / MEAN CORPUSCULAR HEMOGLOBIN / MEAN CORPUSCULAR HEMOGLOBIN CONCENTRATION / MEAN CORPUSCULAR VOLUME / MONOCYTE / NEUTROPHIL / NUCLEATED RED BLOOD CELLS / PLATELET COUNT: tissue Blood; for ALANINE AMINOTRANSFERASE / ALBUMIN / ALKALINE PHOSPHATASE / ASPARTATE AMINOTRANSFERASE / BLOOD UREA NITROGEN / CARBON DIOXIDE / CHLORIDE / CHOLESTEROL / CREATINE PHOSPHOKINASE / CREATININE / GLUCOSE / LACTATE DEHYDROGENASE / LIPASE / PHOSPHORUS / POTASSIUM / SODIUM / TOTAL BILIRUBIN / TOTAL PROTEIN / URIC ACID: tissue Plasma
[1] = 120 mg/kg, 120 h, dose level Low, time 5 day
[2] = 1200 mg/kg, 72 h, dose level High, time 3 day
[3] = 1200 mg/kg, 120 h, dose level High, time 5 day

`Cc1onc(-c2ccccc2Cl)c1C(=O)N[C@@H]1C(=O)N2[C@@H]1SC(C)(C)[C@@H]2C(=O)O` [CLOXACILLIN] was tested, and the “ABSOLUTE BASOPHIL” value [1] was 0 CELLS/uL, the “ABSOLUTE EOSINOPHIL” value [1] was 0 CELLS/uL and the “ABSOLUTE LYMPHOCYTE” value [1] was 14591.67 CELLS/uL. The “ABSOLUTE MONOCYTE” value [1] was 338 CELLS/uL, the “ABSOLUTE SEGMENTED NEUTROPHIL” value [1] was 1970.33 CELLS/uL and the BASOPHIL [1] was 0%. For the same compound, the EOSINOPHIL [1] was 0%, the “ERYTHROCYTE COUNT” value [1] was 5.42 x10E6/uL and the HEMATOCRIT [1] was 34.13%. For the same compound, the HEMOGLOBIN [1] was 13.57 G/DL, the “LEUKOCYTE COUNT” value [1] was 16.9 x10E3/uL and the LYMPHOCYTE [1] was 86.33%. The “MEAN CORPUSCULAR HEMOGLOBIN” value [1] was 25.07 pg, the “MEAN CORPUSCULAR HEMOGLOBIN CONCENTRATION” value [1] was 39.73 G/DL and the “MEAN CORPUSCULAR VOLUME” value [1] was 62.97 fL. For the same compound, the MONOCYTE [1] was 2%, the NEUTROPHIL [1] was 11.67% and the “NUCLEATED RED BLOOD CELLS” value [1] was 0 /100WBC. For the same compound, the “PLATELET COUNT” value [1] was 1237.33 x10E3/uL, the “ALANINE AMINOTRANSFERASE” value [1] was 51.33 u/L and the ALBUMIN [1] was 4.13 G/DL. For the same compound, the “ALKALINE PHOSPHATASE” value [1] was 349.67 u/L, the “ASPARTATE AMINOTRANSFERASE” value [1] was 77.33 u/L and the “BLOOD UREA NITROGEN” value [1] was 15.67 mg/dL. The “CARBON DIOXIDE” value [1] was 27 mmol/L, the CHLORIDE [1] was 101.33 MEQ/L and the CHOLESTEROL [1] was 69.67 mg/dL. For the same compound, the “CREATINE PHOSPHOKINASE” value [1] was 381.33 u/L, the CREATININE [1] was 0.14 mg/dL and the GLUCOSE [1] was 149.67 mg/dL. The “LACTATE DEHYDROGENASE” value [1] was 190 u/L, the LIPASE [1] was 8.33 u/L and the PHOSPHORUS [1] was 11.87 mg/dL. The POTASSIUM [1] was 6.69 MEQ/L, the SODIUM [1] was 143.53 MEQ/L and the “TOTAL BILIRUBIN” value [1] was 0.13 mg/dL. For the same compound, the “TOTAL PROTEIN” value [1] was 5.77 G/DL, the “URIC ACID” value [1] was 1.5 mg/dL and the “ABSOLUTE BASOPHIL” value [2] was 0 CELLS/uL. The “ABSOLUTE EOSINOPHIL” value [2] was 0 CELLS/uL, the “ABSOLUTE LYMPHOCYTE” value [2] was 9313 CELLS/uL and the “ABSOLUTE MONOCYTE” value [2] was 140.33 CELLS/uL. For the same compound, the “ABSOLUTE SEGMENTED NEUTROPHIL” value [2] was 1013.33 CELLS/uL, the BASOPHIL [2] was 0% and the EOSINOPHIL [2] was 0%. The “ERYTHROCYTE COUNT” value [2] was 4.48 x10E6/uL, the HEMATOCRIT [2] was 28.27% and the HEMOGLOBIN [2] was 11.27 G/DL. The “LEUKOCYTE COUNT” value [2] was 10.47 x10E3/uL, the LYMPHOCYTE [2] was 90% and the “MEAN CORPUSCULAR HEMOGLOBIN” value [2] was 25.37 pg. For the same compound, the “MEAN CORPUSCULAR HEMOGLOBIN CONCENTRATION” value [2] was 39.93 G/DL, the “MEAN CORPUSCULAR VOLUME” value [2] was 63.4 fL and the MONOCYTE [2] was 1%. For the same compound, the NEUTROPHIL [2] was 9%, the “NUCLEATED RED BLOOD CELLS” value [2] was 0 /100WBC and the “PLATELET COUNT” value [2] was 825.33 x10E3/uL. For the same compound, the “ALANINE AMINOTRANSFERASE” value [2] was 72 u/L, the ALBUMIN [2] was 4.03 G/DL and the “ALKALINE PHOSPHATASE” value [2] was 414 u/L. The “ASPARTATE AMINOTRANSFERASE” value [2] was 89.67 u/L, the “BLOOD UREA NITROGEN” value [2] was 15 mg/dL and the “CARBON DIOXIDE” value [2] was 22.33 mmol/L. The CHLORIDE [2] was 102.67 MEQ/L, the CHOLESTEROL [2] was 86.33 mg/dL and the “CREATINE PHOSPHOKINASE” value [2] was 306 u/L. The CREATININE [2] was 0.16 mg/dL, the GLUCOSE [2] was 144.67 mg/dL and the “LACTATE DEHYDROGENASE” value [2] was 170 u/L. The LIPASE [2] was 10.67 u/L, the PHOSPHORUS [2] was 12.23 mg/dL and the POTASSIUM [2] was 6.82 MEQ/L. For the same compound, the SODIUM [2] was 143.7 MEQ/L, the “TOTAL BILIRUBIN” value [2] was 0.13 mg/dL and the “TOTAL PROTEIN” value [2] was 5.7 G/DL. For the same compound, the “URIC ACID” value [2] was 1.7 mg/dL, the “ABSOLUTE BASOPHIL” value [3] was 0 CELLS/uL and the “ABSOLUTE EOSINOPHIL” value [3] was 148.67 CELLS/uL. The “ABSOLUTE LYMPHOCYTE” value [3] was 18945 CELLS/uL, the “ABSOLUTE MONOCYTE” value [3] was 0 CELLS/uL and the “ABSOLUTE SEGMENTED NEUTROPHIL” value [3] was 1139.67 CELLS/uL. The BASOPHIL [3] was 0%, the EOSINOPHIL [3] was 0.67% and the “ERYTHROCYTE COUNT” value [3] was 5.75 x10E6/uL. For the same compound, the HEMATOCRIT [3] was 35.27%, the HEMOGLOBIN [3] was 13.97 G/DL and the “LEUKOCYTE COUNT” value [3] was 20.23 x10E3/uL. The LYMPHOCYTE [3] was 93.67%, the “MEAN CORPUSCULAR HEMOGLOBIN” value [3] was 24.3 pg and the “MEAN CORPUSCULAR HEMOGLOBIN CONCENTRATION” value [3] was 39.6 G/DL. The “MEAN CORPUSCULAR VOLUME” value [3] was 61.33 fL, the MONOCYTE [3] was 0% and the NEUTROPHIL [3] was 5.67%. The “NUCLEATED RED BLOOD CELLS” value [3] was 0 /100WBC, the “PLATELET COUNT” value [3] was 1362 x10E3/uL and the “ALANINE AMINOTRANSFERASE” value [3] was 67 u/L. For the same compound, the ALBUMIN [3] was 4.2 G/DL, the “ALKALINE PHOSPHATASE” value [3] was 356 u/L and the “ASPARTATE AMINOTRANSFERASE” value [3] was 78 u/L. The “BLOOD UREA NITROGEN” value [3] was 17.67 mg/dL, the “CARBON DIOXIDE” value [3] was 26 mmol/L and the CHLORIDE [3] was 102.67 MEQ/L. The CHOLESTEROL [3] was 75.33 mg/dL, the “CREATINE PHOSPHOKINASE” value [3] was 220.67 u/L and the CREATININE [3] was 0.15 mg/dL. For the same compound, the GLUCOSE [3] was 159.67 mg/dL, the “LACTATE DEHYDROGENASE” value [3] was 104 u/L and the LIPASE [3] was 9.33 u/L. The PHOSPHORUS [3] was 11.63 mg/dL, the POTASSIUM [3] was 6.63 MEQ/L and the SODIUM [3] was 144.07 MEQ/L. For the same compound, the “TOTAL BILIRUBIN” value [3] was 0.13 mg/dL, the “TOTAL PROTEIN” value [3] was 6.17 G/DL and the “URIC ACID” value [3] was 2 mg/dL.
